{
  "source": "paper PMC6678576",
  "about": "“Spectroscopic Characterisation of the Naphthalene Dioxygenase from Rhodococcus sp. Strain NCIMB12038” (International Journal of Molecular Sciences, 2019)",
  "target": "T1, naphthalene 1,2-dioxygenase (NDO; ISPNAR) from Rhodococcus sp. strain NCIMB12038 (Rhodococcus sp. NCIMB 12038, UniProt Q9X3R9)",
  "T1 construct": "gene narAa; native oxygenase component purified from naphthalene-grown Rhodococcus cells; alpha3beta3; Rieske [2Fe-2S] and mononuclear iron; with Naphthalene 1,2-dioxygenase small (beta) subunit",
  "T1 sequence (Q9X3R9 1-470)": "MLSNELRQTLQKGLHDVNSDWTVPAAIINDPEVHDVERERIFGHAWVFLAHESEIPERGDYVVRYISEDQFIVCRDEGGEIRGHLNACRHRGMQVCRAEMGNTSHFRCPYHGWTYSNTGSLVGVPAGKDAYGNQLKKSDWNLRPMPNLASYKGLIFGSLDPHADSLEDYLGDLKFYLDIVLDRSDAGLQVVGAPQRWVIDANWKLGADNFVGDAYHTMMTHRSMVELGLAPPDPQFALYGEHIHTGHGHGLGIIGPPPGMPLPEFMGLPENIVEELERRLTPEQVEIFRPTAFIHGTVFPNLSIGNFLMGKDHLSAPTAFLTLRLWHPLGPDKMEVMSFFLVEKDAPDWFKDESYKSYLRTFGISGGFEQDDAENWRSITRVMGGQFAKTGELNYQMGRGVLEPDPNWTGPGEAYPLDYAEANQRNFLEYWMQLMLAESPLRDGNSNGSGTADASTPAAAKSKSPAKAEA",
  "T1 sequence (Q7BSK6 1-172 partner)": "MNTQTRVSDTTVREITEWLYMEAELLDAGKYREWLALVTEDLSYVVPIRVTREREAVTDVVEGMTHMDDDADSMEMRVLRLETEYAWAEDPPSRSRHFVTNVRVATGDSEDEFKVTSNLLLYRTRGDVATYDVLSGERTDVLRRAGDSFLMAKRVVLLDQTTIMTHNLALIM",
  "assay": "EPR ([…] K) and UV-Vis of single turnover and peroxide shunt",
  "format": "binding",
  "conditions": "dithionite-reduced NDO with O2-saturated naphthalene, or H2O2 peroxide shunt; no reductase or ferredoxin; 50 mM Tris-HCl pH 7.8, 10% ethanol, 10% glycerol, 0.5 mM DTT",
  "data": [
    {"smiles": "c1ccc2ccccc2c1", "note": "[naphthalene]", "values": [
      {"measurement": "EPR (20 K) and UV-Vis of single turnover and peroxide shunt", "result": "NDO, with reduced Rieske and mononuclear iron centres, is able to react with naphthalene"}
    ]}
  ]
}
